According to PMC12823440, “Inhibitors supercharge kinase turnover through native proteolytic circuits” (Nature, 2025):

How the values were obtained:
Test in all cases: biochemical
BTK = BTK (Homo sapiens, UniProt Q06187)
ABL1 = ABL1 (Homo sapiens, UniProt P00519)
ABL2 = ABL2 (Homo sapiens, UniProt P42684)
MAP4K3 = target: T1, MAP4K3 (Homo sapiens, UniProt Q8IVH8)
T1 sequence (Q8IVH8 1-894): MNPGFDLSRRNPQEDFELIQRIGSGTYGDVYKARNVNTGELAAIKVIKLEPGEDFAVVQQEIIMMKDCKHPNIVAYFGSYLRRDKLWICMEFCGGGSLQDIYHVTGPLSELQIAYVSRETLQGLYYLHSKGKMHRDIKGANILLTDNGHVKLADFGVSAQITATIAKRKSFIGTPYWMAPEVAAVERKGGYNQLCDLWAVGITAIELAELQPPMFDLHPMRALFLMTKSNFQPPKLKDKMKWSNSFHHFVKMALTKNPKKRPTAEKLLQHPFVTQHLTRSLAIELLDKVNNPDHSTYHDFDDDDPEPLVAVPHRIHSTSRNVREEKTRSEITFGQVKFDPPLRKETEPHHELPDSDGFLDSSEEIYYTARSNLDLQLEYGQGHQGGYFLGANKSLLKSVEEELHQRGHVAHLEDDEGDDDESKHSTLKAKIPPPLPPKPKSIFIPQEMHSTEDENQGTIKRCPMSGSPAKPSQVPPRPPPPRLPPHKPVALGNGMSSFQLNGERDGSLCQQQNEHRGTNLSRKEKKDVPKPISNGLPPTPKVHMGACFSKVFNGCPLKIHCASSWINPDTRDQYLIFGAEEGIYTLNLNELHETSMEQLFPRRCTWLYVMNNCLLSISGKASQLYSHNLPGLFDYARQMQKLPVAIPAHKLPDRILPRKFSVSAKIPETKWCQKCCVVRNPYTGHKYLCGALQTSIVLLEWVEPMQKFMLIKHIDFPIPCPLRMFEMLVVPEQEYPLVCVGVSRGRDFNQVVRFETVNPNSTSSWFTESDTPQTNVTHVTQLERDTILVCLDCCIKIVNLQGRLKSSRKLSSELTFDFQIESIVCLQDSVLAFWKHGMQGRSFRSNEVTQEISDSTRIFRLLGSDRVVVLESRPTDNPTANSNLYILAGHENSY

Chain of BTK (Q06187 whole entry): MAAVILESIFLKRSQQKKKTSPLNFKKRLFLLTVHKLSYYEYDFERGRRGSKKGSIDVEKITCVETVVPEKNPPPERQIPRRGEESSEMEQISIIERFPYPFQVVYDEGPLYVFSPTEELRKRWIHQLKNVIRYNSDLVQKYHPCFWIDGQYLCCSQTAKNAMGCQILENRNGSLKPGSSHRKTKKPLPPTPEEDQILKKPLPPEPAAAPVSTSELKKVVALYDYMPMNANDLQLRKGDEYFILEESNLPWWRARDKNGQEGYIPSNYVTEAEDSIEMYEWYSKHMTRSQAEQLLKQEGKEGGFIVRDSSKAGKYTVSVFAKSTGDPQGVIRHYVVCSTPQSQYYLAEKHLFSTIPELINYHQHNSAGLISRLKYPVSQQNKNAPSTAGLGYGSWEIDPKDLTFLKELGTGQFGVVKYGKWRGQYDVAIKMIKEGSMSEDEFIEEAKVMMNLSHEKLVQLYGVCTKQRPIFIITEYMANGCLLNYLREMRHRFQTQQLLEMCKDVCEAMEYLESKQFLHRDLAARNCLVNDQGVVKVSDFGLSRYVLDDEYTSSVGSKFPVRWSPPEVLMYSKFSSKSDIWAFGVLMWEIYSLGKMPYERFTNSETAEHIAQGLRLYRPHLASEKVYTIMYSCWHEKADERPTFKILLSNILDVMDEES
Chain of ABL2 (P42684 whole entry): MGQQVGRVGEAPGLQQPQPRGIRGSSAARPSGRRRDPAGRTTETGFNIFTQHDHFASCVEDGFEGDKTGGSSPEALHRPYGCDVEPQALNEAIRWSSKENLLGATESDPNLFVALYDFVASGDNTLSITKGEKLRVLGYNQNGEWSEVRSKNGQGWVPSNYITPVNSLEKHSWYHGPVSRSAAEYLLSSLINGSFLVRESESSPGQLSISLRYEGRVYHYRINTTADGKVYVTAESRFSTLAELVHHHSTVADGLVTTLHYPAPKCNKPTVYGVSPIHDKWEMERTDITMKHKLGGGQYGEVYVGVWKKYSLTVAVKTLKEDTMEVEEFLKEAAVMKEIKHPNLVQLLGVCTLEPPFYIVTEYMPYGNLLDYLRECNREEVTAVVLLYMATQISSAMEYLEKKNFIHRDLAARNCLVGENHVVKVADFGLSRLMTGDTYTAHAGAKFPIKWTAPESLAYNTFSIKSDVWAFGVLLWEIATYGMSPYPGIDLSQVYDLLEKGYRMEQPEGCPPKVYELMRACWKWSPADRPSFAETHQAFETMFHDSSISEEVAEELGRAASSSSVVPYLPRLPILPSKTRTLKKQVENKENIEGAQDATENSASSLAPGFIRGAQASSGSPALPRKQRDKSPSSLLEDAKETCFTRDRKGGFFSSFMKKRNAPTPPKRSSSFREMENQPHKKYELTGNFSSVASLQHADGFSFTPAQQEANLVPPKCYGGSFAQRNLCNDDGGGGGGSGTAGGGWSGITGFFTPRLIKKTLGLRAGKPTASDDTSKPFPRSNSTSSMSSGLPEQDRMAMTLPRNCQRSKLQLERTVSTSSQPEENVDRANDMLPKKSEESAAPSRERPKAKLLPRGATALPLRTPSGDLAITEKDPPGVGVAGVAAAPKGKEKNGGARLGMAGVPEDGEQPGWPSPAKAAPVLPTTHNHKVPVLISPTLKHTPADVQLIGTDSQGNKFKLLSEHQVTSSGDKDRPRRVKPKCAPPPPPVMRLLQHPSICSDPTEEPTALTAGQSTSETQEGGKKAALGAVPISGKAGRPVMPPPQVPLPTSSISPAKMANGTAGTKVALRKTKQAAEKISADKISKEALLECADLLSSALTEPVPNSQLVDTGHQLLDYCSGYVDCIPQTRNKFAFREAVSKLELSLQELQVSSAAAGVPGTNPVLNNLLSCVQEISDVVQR
Chain of ABL1 (P00519 whole entry): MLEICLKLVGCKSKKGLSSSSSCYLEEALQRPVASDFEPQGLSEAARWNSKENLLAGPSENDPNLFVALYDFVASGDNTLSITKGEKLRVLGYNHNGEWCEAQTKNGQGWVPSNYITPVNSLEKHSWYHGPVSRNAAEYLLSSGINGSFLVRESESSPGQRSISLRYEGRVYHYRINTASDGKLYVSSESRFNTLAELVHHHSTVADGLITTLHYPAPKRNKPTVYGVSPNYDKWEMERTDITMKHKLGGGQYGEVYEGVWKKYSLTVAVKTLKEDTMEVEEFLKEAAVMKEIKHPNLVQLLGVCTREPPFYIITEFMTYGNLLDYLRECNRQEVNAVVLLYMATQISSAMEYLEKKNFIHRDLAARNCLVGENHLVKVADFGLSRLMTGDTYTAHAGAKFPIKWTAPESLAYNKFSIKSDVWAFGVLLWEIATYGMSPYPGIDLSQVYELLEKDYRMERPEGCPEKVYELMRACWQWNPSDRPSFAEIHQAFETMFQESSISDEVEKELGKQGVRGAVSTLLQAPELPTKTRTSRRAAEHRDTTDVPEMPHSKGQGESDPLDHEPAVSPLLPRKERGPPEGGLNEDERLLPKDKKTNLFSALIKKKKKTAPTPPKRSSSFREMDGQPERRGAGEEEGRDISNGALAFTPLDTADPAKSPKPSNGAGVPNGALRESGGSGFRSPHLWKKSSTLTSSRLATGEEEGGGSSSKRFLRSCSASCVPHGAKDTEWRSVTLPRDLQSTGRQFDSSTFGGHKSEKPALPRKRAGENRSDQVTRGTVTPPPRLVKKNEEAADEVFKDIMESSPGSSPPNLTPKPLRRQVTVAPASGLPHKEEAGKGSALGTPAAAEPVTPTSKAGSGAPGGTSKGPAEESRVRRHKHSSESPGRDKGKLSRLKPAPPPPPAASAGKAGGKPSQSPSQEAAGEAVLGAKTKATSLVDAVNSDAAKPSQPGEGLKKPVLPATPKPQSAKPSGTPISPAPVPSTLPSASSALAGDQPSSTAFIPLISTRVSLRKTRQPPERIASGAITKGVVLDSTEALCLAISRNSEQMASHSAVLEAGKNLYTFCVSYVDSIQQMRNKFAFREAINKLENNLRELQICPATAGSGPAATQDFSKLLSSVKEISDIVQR

**Q.** Which results are given for COc1ccc2c(C(=O)Nc3ccc(NC(=O)c4nn(C5CCN(C(=O)CC(C)(C)C#N)CC5)c5ccc(F)cc45)cc3Cl)cnn2c1 [SI-3]?
**A.** Kd (BTK): 3080 nM; Kd (ABL1): 353 nM; Kd (ABL2): 40.2 nM; Kd (MAP4K3): 9700 nM
